Laboratory results: patent US20150299125A1, “PRODRUG BIPYRIDYLAMINOPYRIDINES AS SYK INHIBITORS” (MERCK SHARP & DOHME CORP., priority 2012, published 2015)

Legend:
[1] = phase II clinical trial for allergic rhinitis; cited from earlier work
[2] = dosed intranasally, phase I/II study, allergic rhinitis; cited from earlier work
[3] = Conversion of prodrug to parent in liver homogenate; assay type: in vitro ADME; conditions: prodrug 1 μM, liver S9 1 mg protein/mL, 37° C., pH 7.4, 2 h
Procedure: Conversion of Prodrug to Parent in Liver Homogenate:
(§1) The likely stability of prodrugs in the liver can be estimated by incubating a prodrug with liver homogenate. Incubations of prodrugs (1 μM) with liver S9 (1 mg protein/mL) were carried out at 37° C. in a phosphate buffer, pH 7.4. Control incubations contained BSA (1.1 mg/mL) instead of liver S9 microsomes. Aliquots were removed at 0, 5, 15, 30, 60 and 120 min, treated with 4 volumes of acetonitrile containing 2% formic acid and an internal standard, and centrifuged. The supernatants were analyzed by LC-MS/MS for prodrug disappearance and appearance of active drug. The half-life of the prodrug was calculated from the % prodrug remaining at different time points calculated from on the peak area ratio relative to t=0. The amount of active drug generated at the different time points was determined using a standard curve.

[4] = Solubility in biorelevant fasted state simulated intestinal fluid (FaSSIF); assay type: physicochemical; conditions: FaSSIF (fasted state simulated intestinal fluid), 25 °C, fassif, kinetic from dmso stock, FaSSIF, equilibrated overnight at 25° C., maximum solubility approximately 200 μM; read-out: Solubility
Method in brief: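 Compound from 10 mM DMSO stock diluted into FaSSIF (maximum solubility approximately 200 μM), equilibrated, then filtered by centrifugation through a 0.45 μm polypropylene membrane. Filtrate and a 100 μM standard analysed by HPLC/DAD; solubility = (sample peak area/standard peak area) × standard concentration.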

Blood stability assay = assay type: in vitro ADME; conditions: whole blood; human blood, 37° C.
Procedure: The likely stability of prodrugs in the blood can be estimated by incubating a prodrug with blood. A prodrug stock solution was prepared at 10 mM in DMSO and working solutions (100 μM) containing the prodrug were prepared by diluting a suitable amount of the stock solution with acetonitrile/water (50/50). 5 μL of the working solution were added to 495 μL of pre-warmed blood (at 37° C.). After vortexing and mixing, 50 μL of the spiked blood sample were taken for the 0 time point and transferred to another vial containing 200 μL of quenching solution (labetalol, alprazolam and diclofenac in 100% acetonitrile) ensuring that the vial is lidded to prevent evaporation and kept on ice. While keeping the spiked blood sample at 37° C. at the following timepoints (0.25, 0.5, 1, 2 and 3 h) 5 additional aliquots (50 μL) were sampled and mixed with the quenching solution. At the end of the experiment the quenched samples were vortexed for 2 minutes and centrifuged for 10 minutes at 4000 rpm. The supernatant (100 μL) was then transferred and collected into a new 96-well plate and injected into the LC-MS/MS for analysis. For each test compound, the area ratios at each time point to the 0 hour area ratio were compared and converted to a percentage remaining. The percentage remaining were then plotted against time (h) and half life generated using the following equation t½=0.693/kel. Where kel is the elimination rate constant which is determined from the concentration versus time curve by linear regression at the terminal phase of the semi-logarithmic plot.

[5] = Conversion of prodrug to parent in intestine homogenate; assay type: in vitro ADME; conditions: prodrug 1 μM, intestine S9 1 mg protein/mL, 37° C., pH 7.4, 2 h
Procedure: Conversion of Prodrug to Parent in Intestine Homogenate:
as §1, with “intestine” for “liver”

[6] = Conversion of prodrug to parent in in vitro biorelevant gastrointestinal tract media; assay type: in vitro ADME; conditions: 37° C.; for Conversion in SGF, time: simulated gastric fluid
Procedure: Conversion of Prodrug to Parent in In Vitro Biorelevant Gastrointestinal Tract Media: The likely stability of prodrugs in the gastrointestinal tract can be estimated by incubating a prodrug in simulated gastric and intestinal fluids; compounds were measured for stability in simulated gastric fluid (SGF), fasted state simulated intestinal fluid (FaSSIF), and fasted state simulated intestinal fluid plus pancreatin (FaSSIF+pancreatin). Prodrug stock solutions were made by diluting 2 mg of compound in 200 μL DMSO. A 10 mg/mL Pancreatin in FaSSIF stock solution was made by dissolving 10 mg Pancreatin in 1 mL FaSSIF. Samples were prepared by diluting 10 μL of compound stock solution into 990 μL of biorelevant media (990 μL SGF, 990 μL FaSSIF, or 940 μL FaSSIF plus 50 μL Pancreatin stock) in a 2 mL HPLC vial and vortexing the mixture for a few seconds. The samples were incubated at 37° C. and aliquots were removed for up to 24 hours and injected directly on an HPLC to determine the conversion of prodrug to active drug. In the case of compound precipitation upon sample preparation, an individual sample was prepared for each desired time point and the entire sample was diluted with a known volume of acetonitrile/water (50/50) to ensure compound dissolution before HPLC analysis.

[7] = molecular target: T1, recombinant human GST-Syk (Homo sapiens, UniProt P43405); assay: Homogeneous Time-Resolved Fluorescence (HTRF) assay for the recombinant human Syk enzyme; assay type: biochemical; conditions: recombinant human GST-Syk 5 pM, ATP 25 μM, read-out: IC50
T1 construct: purchased Carna Biosciences 08-176
Method in brief: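 Recombinant GST-hSyk phosphorylates a biotinylated peptide for 45 min at room temperature. Quenched with EDTA buffer containing 2 nM Eu-anti-phosphotyrosine antibody and 70 nM SA-APC; HTRF read after 30 min.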

SMILES | efficacy versus placebo [1] | PGD2 [2] | clinical safety [2] | Prodrug concentration at 2 h [3] [µM] | solubility [4] [µM] | half-life at 1 μM (Blood stability assay) [min] | Prodrug concentration at 2 h [5] [µM] | Conversion in FaSSIF + Pancreatin, time ([6]; 3 h) | Conversion in FaSSIF, time ([6]; 3 h) | Conversion in SGF, time ([6]; 5 h) | IC50 [7] [nM] | Conversion in FaSSIF, time ([6]; 5 h)
Oc1cccc(Nc2ncc(F)c(Nc3cccc(O)c3)n2)c1 [Example R112] | lack of efficacy versus placebo | statistically significant decrease | safe across a range of indicators | – | – | – | – | – | – | – | – | –
Cc1cc(Nc2cc(C(F)F)ccn2)nc(-c2ccc([C@](C)(O)[C@H]3CC[C@H](C(=O)OC[N+]4(C)CCOCC4)CC3)nc2)c1.[I-] [Example 5-1, 4-{[({trans-4-[(1R)-1-(6-{[4-(Difluoromethyl)pyridin-2-yl]amino}-4-methyl-2,3′-bipyridin-6′-yl)-1-hydroxyethyl]cyclohexyl}carbonyl)oxy]methyl}-4-methylmorpholin-4-ium] | – | – | – | 0.314 | 200 | 15 | 0.321 | 45%, 3 h | 12%, 3 h | 0%, 5 h | 3.6 | –
CCOCCOCCOC(=O)OCOC(=O)[C@H]1CC[C@H]([C@@](C)(O)c2ccc(-c3cc(C)cc(Nc4cc(C(F)F)ccn4)n3)cn2)CC1 [Example 2-2, 3-oxo-2,4,7,10-tetraoxadodec-1-yl trans-4-[(1R)-1-(6-{[4-(difluoromethyl)pyridin-2-yl]amino}-4-methyl-2,3′-bipyridin-6′-yl)-1-hydroxyethyl]cyclo hexanecarboxylate] | – | – | – | 0 | – | 7 | 0 | 100%, 3 h | – | 0%, 5 h | 174 | 0%, 5 h
